How the values were obtained:
[1] = test system: ALL-PO (B-Lymphoblastic Leukemia); assay: Bliss excess, mean over the matrix (fraction); higher = more synergy
Summary of the method: (§1)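 Bliss excess equals the observed combination effect minus the expected value EA + EB − EA·EB, where EA and EB are the effects of each agent alone. Combination Emax is the second-highest inhibition within the matrix. Inhibition was scaled from CellTiter-Glo 2.0 luminescence, with 0 set by vehicle wells and 1 by blank wells, after 72 hours of two-drug dosing of cells plated in 1536-well plates.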

[2] = test system: BFTC-909 (Kidney Carcinoma); assay: as above
Summary of the method: as §1

BPH-1 (Non-Cancerous) = assay: as above
Summary of the method: as §1

[3] = test system: HH (T-Cell Non-Hodgkin's Lymphoma); assay: as above
Summary of the method: as §1

[4] = test system: KYAE-1 (Esophageal Adenocarcinoma); assay: as above
Summary of the method: as §1

[5] = test system: NCI-H1568 (Lung Adenocarcinoma); assay: as above
Summary of the method: as §1

[6] = test system: NCI-H209 (Small Cell Lung Carcinoma); assay: as above
Summary of the method: as §1

NCI-H2722 (Mesothelioma) = assay: as above
Summary of the method: as §1

[7] = test system: NCI-H720 (Other Solid Carcinomas); assay: as above
Summary of the method: as §1

[8] = test system: SNU-449 (Hepatocellular Carcinoma); assay: as above
Summary of the method: as §1

[9] = test system: YAPC (Pancreatic Carcinoma); assay: as above
Summary of the method: as §1

[10] = test system: NCI-H720 (Other Solid Carcinomas); assay: combination Emax (second highest fraction inhibited in the dose matrix, 72 h); higher = more inhibition; extreme values may be limits of the assay
Summary of the method: as §1

| SMILES | Bliss excess [1] | Bliss excess [2] | Bliss excess (BPH-1 (Non-Cancerous)) | Bliss excess [3] | Bliss excess [4] | Bliss excess [5] | Bliss excess [6] | Bliss excess (NCI-H2722 (Mesothelioma)) | Bliss excess [7] | Bliss excess [8] | Bliss excess [9] | combination Emax [10] |
| --- | --- | --- | --- | --- | --- | --- | --- | --- | --- | --- | --- | --- |
| COc1cccc2c1C(=O)c1c(O)c3c(c(O)c1C2=O)C[C@@](O)(C(=O)CO)C[C@@H]3O[C@H]1C[C@H](N)[C@H](O)[C@H](C)O1 [Doxorubicin] + Cc1cc2ncnn2cc1Nc1ncc2c(n1)n(C1CCOCC1)c(=O)n2C [AZD7648] (first compound max 1 µM, 7x7, partner max 10 µM) | 0.143 | 0.0402 | 0.0736 | -0.0305 | 0.0242 | -0.0357 | 0.129 | 0.0336 | 0.0281 | -0.0358 | -0.0304 | 0.478 |
| COc1cccc(OCCCN)c1-c1cc(Nc2cnc(C#N)cn2)n[nH]1 [Prexasertib] + C[C@@H]1COCCN1C2=NC(=NC(=C2)C3(CC3)[S@](=N)(=O)C)C4=C5C=CNC5=NC=C4 [AZD6738] (first compound max 1 µM, 7x7, partner max 10 µM) | 0.0584 | 0.0417 | -0.015 | -0.0053 | 0.0651 | -0.0668 | -0.0214 | -0.002 | -0.0325 | 0.0134 | 0.0689 | 0.697 |
| C[C@@H]1COCCN1c1cc(C2([S@](C)(=N)=O)CC2)nc(-c2ccnc3[nH]ccc23)n1 [AZD6738] + O=C(c1cc(Cc2n[nH]c(=O)c3ccccc23)ccc1F)N1CCN(C(=O)C2CC2)CC1 [Olaparib] (first compound max 10 µM, 7x7, partner max 10 µM) | 0.018 | 0.0337 | 0.0283 | -0.0082 | -0.0082 | -0.0358 | -0.0599 | 0.0087 | -0.0398 | 0.0007 | -0.0007 | 0.687 |
| CCN(CCO)CCCOc1ccc2c(Nc3cc(CC(=O)Nc4cccc(F)c4)[nH]n3)ncnc2c1 [AZD2811] + O=C(c1cc(Cc2n[nH]c(=O)c3ccccc23)ccc1F)N1CCN(C(=O)C2CC2)CC1 [Olaparib] (first compound max 1 µM, 7x7, partner max 10 µM) | 0.0133 | 0.0468 | 0.0466 | -0.0353 | 0.0093 | -0.0472 | 0.0418 | -0.016 | -0.0312 | -0.0368 | -0.0124 | 0.561 |
| CCc1c2c(nc3ccc(O)cc13)-c1cc3c(c(=O)n1C2)COC(=O)[C@]3(O)CC [SN-38] + O=C(c1cc(Cc2n[nH]c(=O)c3ccccc23)ccc1F)N1CCN(C(=O)C2CC2)CC1 [Olaparib] (first compound max 0.3 µM, 7x7, partner max 10 µM) | 0.0576 | 0.0897 | 0.0501 | -0.0275 | -0.0184 | – | – | 0.0188 | -0.0027 | -0.0319 | 0.0336 | 0.333 |
| COc1nnc2ccc(N3CCC(c4ccc(OCCN5CCN(C)C(=O)[C@H]5C)cc4)CC3)nn12 [AZD5153] + CC1(C)CCC(CN2CCN(c3ccc(C(=O)NS(=O)(=O)c4ccc(NCC5CCOCC5)c([N+](=O)[O-])c4)c(Oc4cnc5[nH]ccc5c4)c3)CC2)=C(c2ccc(Cl)cc2)C1 [Venetoclax] (first compound max 1 µM, 7x7, partner max 1 µM) | 0.058 | -0.105 | -0.0574 | -0.065 | -0.0171 | -0.0383 | -0.008 | -0.0485 | – | -0.0308 | -0.0115 | – |
| Cc1c2c(nn1C)CSCc1cc(n(C)n1)CSc1cc(c3ccccc3c1)OCCCc1c(C(=O)O)n(C)c3c-2c(Cl)ccc13 [AZD5991] + C[C@@H](Nc1cc(F)cc(F)c1)c1cc(C(=O)N(C)C)cc2c(=O)cc(N3CCOCC3)oc12 [AZD8186] (first compound max 1 µM, 7x7, partner max 3 µM) | -0.0248 | 0.0188 | 0.0078 | 0.105 | -0.0125 | 0.0126 | -0.0154 | -0.0434 | – | -0.078 | -0.0159 | – |
| CC(=O)c1c(C)c2cnc(Nc3ccc(N4CCNCC4)cn3)nc2n(C2CCCC2)c1=O [Palbociclib] + CC1(C)CCC(CN2CCN(c3ccc(C(=O)NS(=O)(=O)c4ccc(NCC5CCOCC5)c([N+](=O)[O-])c4)c(Oc4cnc5[nH]ccc5c4)c3)CC2)=C(c2ccc(Cl)cc2)C1 [Venetoclax] (first compound max 10 µM, 7x7, partner max 1 µM) | 0.169 | 0.0244 | -0.0556 | -0.0384 | -0.023 | -0.0506 | 0.0824 | -0.0485 | – | -0.0153 | -0.0109 | – |

Reference: the supplement of paper PMC11061612
